Source: patent US20180014536A1, “AGENT FOR IMPROVING PLANT GROWTH AND METHOD FOR PRODUCING PLANT USING SAME” (FUSO CHEMICAL CO., LTD., priority 2015, published 2018)
Values joined by “and” are separate entries in the source; they are usually repeats but may differ in a detail not shown here. Equal values may be shown once.

Experiments:
[1] = tested on: racomitrium moss; assay: Verification experiment 17: high temperature stress, Bryophyta, TTC test; assay type: in vivo; conditions: samples immersed in tap water of 45° C. for 18 hours
Protocol: As a Bryophyta, racomitrium moss was used, which is a Bryophyta widely used for greening a park, a rooftop, and a garden. Verification experiments for various stresses were conducted thereon. The experiments were conducted in the following procedures. […] Meanwhile, the control sample was sprayed only with water. After the spraying, the racomitrium mosses were cultivated at 25° C. for one day. Then, the samples were subjected to various stresses. Thus, cell activities of the samples were determined by TTC test. […] On such samples, TTC test was conducted.

[2] = tested on: racomitrium moss; assay: Verification experiment 19: ammonia stress, Bryophyta, TTC test; assay type: in vivo; conditions: samples immersed in 1.0% ammonia solution for 48 hours
[3] = tested on: autumn fern; assay: Verification experiment 14: high temperature stress, Pteridophyta, TTC test; assay type: in vivo; conditions: cut leaves immersed in tap water of 45° C. for 18 hours
Protocol: As a Pteridophyta, autumn fern was used, which is a representative Pteridophyta often found in, […] bright forest. Verification experiments for various stresses were conducted thereon. The experiments were conducted in the following procedures. […] Meanwhile, the leaf surfaces of the control sample were sprayed only with water. After the spraying onto the leaf surfaces, the autumn fern seedlings were cultivated at 25° C. for one day. The leaves were cut in a suitable size, and were then subjected to various stresses. Then, cell activities of the samples were determined by TTC test. The leaves that were cut in the suitable size were immersed in tap water of 45° C. for 18 hours. On such leaves, TTC test was conducted.

[4] = tested on: cucumber; assay: Verification experiment 9: organic acid stress, TTC test; assay type: in vivo; conditions: cut leaves immersed in 0.4% acetic acid solution for two hours
[5] = tested on: cucumber; assay: Verification experiment 8: low temperature stress, TTC test; assay type: in vivo
[6] = tested on: Japanese mustard spinach; assay: Verification experiment 2: high temperature stress, hydroponics, plenty of sunlight (second time-A)
[7] = tested on: radish sprouts; assay: Verification experiment 4: acid stress (nitric acid); conditions: leaf spray, then immersed in pH 2.5 acid solution for one minute
Description: By use of radish sprouts, a resistance to acid stress caused by nitric acid was investigated.
Zerumbone was sprayed onto the leaf surfaces of the cotyledons of radish sprouts seedlings three to four days after germination, and the seedlings were then cultivated for several days. Meanwhile, only water was sprayed onto the leaf surfaces of another radish sprouts seedlings, and the seedlings were then cultivated for several days. The radish sprouts seedlings thus cultivated were immersed in a pH 2.5 acid solution for one minute.

[8] = tested on: cucumber; assay: Verification experiment 3: high temperature stress, soil culture; assay type: in vivo; conditions: leaf spray on cotyledons, 10 days cultivation
Protocol: Next, an experiment was conducted to confirm effectiveness of the agent in soil culture of cucumber. First, seeds of cucumber were sown in culture soil thrown into 15 cm-pots (size-5 pots) such that the seeds have spaces therebetween. The culture soil contains, as fertilizer components, 180 mg/L of nitrogen, 120 mg/L of phosphoric acid, and 220 mg/L of potassium. The soil was adjusted at pH 6.0. Watering was performed every early morning. […] A growth difference was observed therebetween.

[9] = tested on: radish sprouts; assay: Verification experiment 5: alkaline stress (potassium hydroxide); conditions: leaf spray, then immersed in pH 9.0 solution
Description: Next, by use of radish sprouts, a resistance to alkaline stress caused by potassium hydroxide was investigated.
Zerumbone was sprayed onto the leaf surfaces of the cotyledons of radish sprouts seedlings three to four days after germination, and the seedlings were then cultivated for several days. Meanwhile, only water was sprayed onto the leaf surfaces of another radish sprouts seedlings, and the seedlings were then cultivated for several days. The radish sprouts seedlings thus cultivated were immersed in a pH 9.0 acid solution.

[10] = tested on: racomitrium moss; assay: Verification experiment 18: organic acid stress, Bryophyta, TTC test; assay type: in vivo; conditions: samples immersed in 0.4% acetic acid solution for three hours
[11] = tested on: cucumber; assay: Verification experiment 10: ammonia stress, TTC test; assay type: in vivo; conditions: cut leaves immersed in 1.0% ammonia solution for three hours
[12] = tested on: cucumber; assay: Verification experiment 12: salt stress, TTC test; assay type: in vivo; conditions: cut leaves immersed in 1.0% saline water for 24 hours
[13] = tested on: autumn fern; assay: Verification experiment 15: organic acid stress, Pteridophyta, TTC test; assay type: in vivo; conditions: cut leaves immersed in 0.4% acetic acid solution for three hours
[14] = tested on: cucumber; assay: Verification experiment 6: dry stress; assay type: in vivo
Protocol: By use of cucumber, a resistance to dry stress was investigated. 3 ml of Zerumbone was added to cucumber seedlings immediately after germination. The cucumber seedlings were cultivated for 18 days. Meanwhile, another cucumber seedlings were cultivated for 18 days without Zerumbone added thereto. Throughout the cultivation period, a minimum amount of water was given and watering was conducted a minimum number of times so that the soil surface was always kept dry. […] A weight of each of the seedlings was measured. […] Note that, except for the agent, the cultivation conditions used were identical to those of the case where zerumbone was used.

[15] = tested on: autumn fern; assay: Verification experiment 16: ammonia stress, Pteridophyta, TTC test; assay type: in vivo; conditions: cut leaves immersed in 1.0% ammonia solution for 48 hours
[16] = tested on: leaf lettuce; assay: Verification experiment 13: hydroponics test on leaf lettuce in vinyl greenhouse in summer; assay type: in vivo
[17] = tested on: Japanese mustard spinach; assay: Verification experiment 2: high temperature and low sunshine stress, hydroponics (second time-B)
[18] = tested on: cucumber; assay: Verification experiment 11: ultraviolet ray stress, TTC test; assay type: in vivo; conditions: cut leaves irradiated with ultraviolet ray for 24 hours
[19] = tested on: radish sprouts; assay: Verification experiment 7: recovering from dry stress; assay type: in vivo; conditions: among the four samples; sprayed, dried one night, replanted
Description: Next, radish sprouts seedlings were dried so that the radish sprouts seedlings were severely damaged. Subsequently, adequate water was given to the radish sprouts seedlings. Thus, whether or not the radish sprouts seedlings could be recovered from the damage was verified. First, radish sprouts were immersed in water during night so that germination thereof was promoted. After germination, radish sprouts seedlings planted in vermiculite were impregnated in a nutrient fluid of the Ensi formulation. The radish sprouts seedlings were cultured at 25° C. for five days. A light period during the culture was six hours. Then, zerumbone was sprayed to the radish sprouts seedlings. Meanwhile, water was sprayed to samples used as a control. These radish sprouts seedlings were cultured for one more day. Thereafter, the roots thereof were washed so that the vermiculite was removed therefrom. Then, the roots were wiped with a paper towel. The radish sprouts seedlings were then arranged on a tray, and were dried for one night. The radish sprouts seedlings thus dried were planted in culture soil obtained by blending leaf soil and […] soil in a ratio of 4:6 in a pot.

[20] = tested on: Japanese mustard spinach; assay: Verification experiment 1: high temperature stress, hydroponics (first time); assay type: in vivo; conditions: first time
Protocol: In order to confirm that the above substances have an efficacy such as alleviation of the various stresses on a plant or promotion of plant growth, some verification experiments were conducted. In each of the verification experiments, solutions of the above substances were used. A concentration thereof was in a range from 0.01 ppm to 10 ppm, in order to exert a sufficient efficacy on a plant. This concentration was appropriately adjusted for each verification experiment. For comparison, similar verification experiments using sanguinarine were conducted. In such a verification experiment for an identical purpose to the above, a concentration of sanguinarine was set to be identical to those of the above substances. A verification experiment for high temperature stress was conducted by use of Japanese mustard spinach. The experiment was conducted in the following procedures. […] Note that the agent used was zerumbone.

[21] = leaf lettuce, summer greenhouse hydroponics
[22] = leaf lettuce, summer greenhouse hydroponics, listed as zerumbone

With C/C1=C\CC(C)(C)/C=C/C(=O)/C(C)=C/CC1 [Zerumbone, zerumbone] the “TTC test dyeing (cell activity)” value [1] was “dyed slightly”, the “TTC test dyeing (cell activity)” value [2] was “dyed slightly” and the “TTC test dyeing (cell activity)” value [3] was “dyed slightly”. For the same compound, the “cells having an activity (TTC test)” value [4] was “approximately half of the cells”, the “TTC test dyeing (cell activity)” value ([5]; cut leaves left two days in dark place at 0° C.) was “dyed deeply” and the “TTC test dyeing (cell activity)” value ([5]; cut leaves left two days in dark place at −10° C.) was “dyed slightly”. For the same compound, the “TTC test dyeing of leaves (cell activity)” value ([5]; remaining plants cultivated two days under fluorescent lamp at 4° C.) was “dyed deeply except for their peripheries”, the “weights greater than those of the control samples” value ([6]; Table 2 experiment) was “approximately 17%” and the “Growth ratio (%)” value ([6]; control = 100.0, second time-A) was 116.7%. For the same compound, the “Weight of 10 samples” value ([6]; dry weight of 10 seedlings, nine days, 30-43 °C, plenty of sunlight, second time-A) was 2.120 g and 2.176 g and 2.213 g and 2.298 g, the “Average” value ([6]; second time-A) was 2.202 g and the withering of seedlings [7] was “Slight withering was observed in some portions”. For the same compound, the “growth of cucumber seedlings (FIG. 1)” value [8] was “grown greatly”, the “resistance to alkaline stress (withering)” value [9] was “gives a plant resistance to both acid and alkali” and the “TTC test dyeing (cell activity)” value [10] was “dyed slightly”. For the same compound, the “cells having an activity (TTC test)” value [11] was “a part of the cells”, the “cells alive (TTC test)” value [12] was “most of the cells” and the “TTC test dyeing (cell activity)” value [13] was “dyed slightly”. For the same compound, the “average weight greater than the control samples” value ([14]; 18 days dry stress) was “approximately 13%”, the “growth compared with control (FIG. 2)” value ([14]; after 18-day cultivation under dry stress) was “grew more greatly than the control” and the “Average” value ([14]; average seedling weight after 18 days dry stress) was 3.00 g. For the same compound, the “Weight comparison (%)” value ([14]; control = 100.0) was 113.0%, the “TTC test dyeing (cell activity)” value [15] was “dyed slightly” and the “Growing speed: Harvest timing” value ([16]; day on which harvest size reached 150 g to 180 g) was 30th day after day after germination. The “Disease resistance: Powdery mildew” value [16, 21] was “Not occurred”, the “Disease resistance: Root rot” value [16, 21] was “Not occurred” and the “Physiological disorder (quality): Heterophyll” value [16, 21] was “Not occurred”. For the same compound, the “Physiological disorder (quality): Root spread condition” value [16, 21] was “Very good”, the “Physiological disorder (quality): Taste” value [16, 21] was “No bitterness” and the “Physiological disorder (quality): Tip burn (dead fringes of leaf)” value [16, 21] was “Not occurred”. For the same compound, the “Physiological disorder (quality): Unproductive growth” value [16, 21] was “Not occurred”, the “occurrence of a disease (overall)” value [16, 21] was “occurrence of a disease was not observed” and the “physiological disorder (overall)” value [16, 21] was “no physiological disorder occurred”. For the same compound, the “Physiological disorder (quality): Root spread condition” value [16, 22] was “far better than in the sanguinarine test section”, the “Physiological disorder (quality): Taste” value [16, 22] was “no bitterness” and the “growth better than the growth of the control samples” value ([17]; Table 3 experiment, almost no sunlight) was “approximately 37%”. For the same compound, the “Growth ratio (%)” value ([17]; control = 100.0, second time-B) was 136.5%, the “Weight of 10 samples” value ([17]; dry weight of 10 seedlings, nine days, 30-43 °C, almost no sunlight, second time-B) was 2.137 g and 2.163 g and the “Average” value ([17]; second time-B) was 2.150 g. For the same compound, the “cells having an activity (TTC test)” value [18] was “approximately half of the cells”, the “samples recovered from the dry state” value [19] was “three” and the “Average” value ([20]; average weight of 10 samples) was 1.760 g. The “weights greater than those of the control samples” value ([20]; average weights compared) was “approximately 15%”, the “Growth ratio (%)” value ([20]; control = 100.0) was 115.4% and the “Weight of 10 samples” value ([20]; dry weight of 10 seedlings, leaf spray, nine days culture, maximum temperature 30-43 °C, plenty of sunlight) was 1.729 g and 1.732 g and 1.787 g and 1.792 g.
